Results published in PubChem BioAssay AID330 (DTP/NCI, 2004).
Where “and” joins values, the source holds several entries; their conditions need not be identical. Identical values can stand only once. Toxic doses and inconclusive results are not listed.

Tested on: P388 leukemia ip, CD2F1 mice, survival T/C
Experiment: NCI In Vivo Anticancer Drug Screen. Data for tumor model P388 Leukemia (intraperitoneal) in CD2F1 (CDF1) mice
Conditions: endpoint: median survival time, higher = longer survival
In short: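 Mice carrying the transplanted tumor received test compound or vehicle. Survival was recorded in each group, and the value is the treated-group measurement divided by that of the vehicle-treated control group.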

[1] = dose: 50.0 mg/kg/injection, schedule: Q01DX005 (ip), vehicle: saline
[2] = dose: 100.0 mg/kg/injection, schedule: Q01DX005 (ip), vehicle: saline
[3] = dose: 200.0 mg/kg/injection, schedule: Q01DX005 (ip), vehicle: saline
[4] = dose: 6.25 mg/kg/injection, schedule: Q04DX003 (ip), vehicle: saline
[5] = dose: 12.5 mg/kg/injection, schedule: Q04DX003 (ip), vehicle: saline
[6] = dose: 50.0 mg/kg/injection, schedule: Q01DX005 (ip), vehicle: saline with Tween-80
[7] = dose: 100.0 mg/kg/injection, schedule: Q01DX005 (ip), vehicle: saline with Tween-80
[8] = dose: 15.0 mg/kg/injection, schedule: Q01DX005 (ip), vehicle: saline with Tween-80
[9] = dose: 30.0 mg/kg/injection, schedule: Q01DX005 (ip), vehicle: saline with Tween-80
[10] = dose: 60.0 mg/kg/injection, schedule: Q01DX005 (ip), vehicle: saline with Tween-80
[11] = dose: 12.5 mg/kg/injection, schedule: Q01DX009 (ip), vehicle: saline
[12] = dose: 25.0 mg/kg/injection, schedule: Q01DX009 (ip), vehicle: saline
[13] = dose: 50.0 mg/kg/injection, schedule: Q01DX009 (ip), vehicle: Klucel (hydroxypropylcellulose) (HPC)
[14] = dose: 100.0 mg/kg/injection, schedule: Q01DX009 (ip), vehicle: Klucel (hydroxypropylcellulose) (HPC)
[15] = dose: 25.0 mg/kg/injection, schedule: Q01DX009 (ip), vehicle: saline with Tween-80

CN1C2CCC1C(CO)C(O)C2 (stereo not given)
T/C [1]: 98 % of control | T/C [2]: 103 % of control | T/C [3]: 107 % of control

[Cu+2].[NH-]C(CCC(N)=O)C(=O)O.[NH-]C(CCC(N)=O)C(=O)O (stereo not given)
T/C [4]: 100 % of control | T/C [5]: 90 % of control

COC(=O)[CH2][Sn]([CH3])([CH3])[CH2]C(=O)OC
T/C (dose: 12.5 mg/kg/injection, schedule: Q01DX005 (ip), vehicle: saline): 114 % of control | T/C (dose: 25.0 mg/kg/injection, schedule: Q01DX005 (ip), vehicle: saline): 124 % of control | T/C [1]: 123 % of control

CCOC(=O)N1C=CC2(C=C1)CCCCCC2
T/C (dose: 37.5 mg/kg/injection, schedule: Q04DX003 (ip), vehicle: Klucel (hydroxypropylcellulose) (HPC)): 101 % of control | T/C (dose: 75.0 mg/kg/injection, schedule: Q04DX003 (ip), vehicle: Klucel (hydroxypropylcellulose) (HPC)): 98 % of control

CCC(=O)NC1=CCC(C(C)(C)C)CC1 (stereo not given)
T/C [6]: 102 % of control | T/C [7]: 102 % of control

c1ccc2c(c1)CC1OCN3CN(COC4Cc5ccccc5CC43)C1C2 (stereo not given)
T/C [1]: 114 % of control | T/C [2]: 111 % of control | T/C [3]: 112 % of control

O=C(Nc1ccccc1)OCc1c(COC(=O)Nc2ccccc2)c(-c2ccc(Cl)c(Cl)c2)n2c1CCC2
T/C (dose: 12.5 mg/kg/injection, schedule: Q01DX005 (ip), vehicle: distilled water + Tween-80): 122 % of control | T/C (dose: 100.0 mg/kg/injection, schedule: Q01DX005 (ip), vehicle: distilled water + Tween-80): 155 % of control | T/C (dose: 200.0 mg/kg/injection, schedule: Q01DX005 (ip), vehicle: distilled water + Tween-80): 160 % of control

Nc1ccc2nc3ccc(N)cc3[n+](-c3ccccc3)c2c1
T/C (dose: 0.39 mg/kg/injection, schedule: Q04DX003 (ip), vehicle: saline): 100 % of control | T/C (dose: 0.78 mg/kg/injection, schedule: Q04DX003 (ip), vehicle: saline): 95 % of control | T/C (dose: 1.56 mg/kg/injection, schedule: Q04DX003 (ip), vehicle: saline): 95 % of control | T/C (dose: 3.13 mg/kg/injection, schedule: Q04DX003 (ip), vehicle: saline): 95 % of control | T/C [4]: 95 % of control | T/C (dose: 8.0 mg/kg/injection, schedule: Q01DX009 (ip), vehicle: saline with Tween-80): 154 % of control | T/C (dose: 12.0 mg/kg/injection, schedule: Q01DX009 (ip), vehicle: saline with Tween-80): 154 % of control | T/C [5]: 95 % of control | T/C (dose: 18.0 mg/kg/injection, schedule: Q01DX009 (ip), vehicle: saline with Tween-80): 86 % of control

O=c1[nH]c2c(=O)[nH][nH]c(=O)c2[nH]c1=O
T/C [8]: 103 % of control | T/C [9]: 100 % of control | T/C [10]: 99 % of control and 105 % of control

S=c1n(-c2ccc(Cl)cc2)c2/c(=N\Nc3cc(Cl)ccc3Cl)c(n1-c1ccccn1)=NCCN=2
T/C [8]: 98 % of control | T/C [9]: 112 % of control | T/C [10]: 99 % of control and 112 % of control

O=C1C(=Cc2ccc(O)cc2)C(=O)c2ccccc21
T/C (dose: 100.0 mg/kg/injection, schedule: Q04DX002 (ip), vehicle: saline): 97 % of control | T/C (dose: 200.0 mg/kg/injection, schedule: Q04DX002 (ip), vehicle: saline): 99 % of control | T/C (dose: 400.0 mg/kg/injection, schedule: Q04DX002 (ip), vehicle: saline): 106 % of control

Cc1ccc(NC(=S)SCc2ccc(Cl)cc2)cc1C
T/C (dose: 50.0 mg/kg/injection, schedule: Q01DX009 (ip), vehicle: suspension in saline): 101 % of control | T/C (dose: 100.0 mg/kg/injection, schedule: Q01DX009 (ip), vehicle: suspension in saline): 107 % of control | T/C (dose: 200.0 mg/kg/injection, schedule: Q01DX009 (ip), vehicle: suspension in saline): 97 % of control

CCc1nc(N)nc(N)c1-c1ccc(OC)c([N+](=O)[O-])c1
T/C (dose: 120.0 mg/kg/injection, schedule: Q01DX005 (ip), vehicle: saline with Tween-80): 151 % of control and 189 % of control | T/C (dose: 480.0 mg/kg/injection, schedule: Q01DX005 (ip), vehicle: saline with Tween-80): 90 % of control

COC1=C(C2=C(OC)C(=O)c3cc4c(c(O)c3C2=O)C(=O)OC(C)C4)C(=O)c2c(cc3c(c2O)C(=O)OC(C)C3)C1=O (stereo not given)
T/C (dose: 6.25 mg/kg/injection, schedule: Q01DX009 (ip), vehicle: saline): 100 % of control | T/C [11]: 98 % of control | T/C [12]: 103 % of control

CCOC(=O)c1ccc2ccc(OC)c(OC)c2c1
T/C (dose: 12.5 mg/kg/injection, schedule: Q01DX009 (ip), vehicle: other): 95 % of control | T/C (dose: 25.0 mg/kg/injection, schedule: Q01DX009 (ip), vehicle: other): 97 % of control | T/C (dose: 50.0 mg/kg/injection, schedule: Q01DX009 (ip), vehicle: other): 104 % of control | T/C (dose: 100.0 mg/kg/injection, schedule: Q01DX009 (ip), vehicle: other): 95 % of control | T/C (dose: 200.0 mg/kg/injection, schedule: Q01DX009 (ip), vehicle: other): 104 % of control

COc1ccc2c(c1[N+](=O)[O-])CCCC(Br)(Br)C2=O
T/C [13]: 107 % of control | T/C [14]: 107 % of control | T/C (dose: 200.0 mg/kg/injection, schedule: Q01DX009 (ip), vehicle: Klucel (hydroxypropylcellulose) (HPC)): 108 % of control

O=C(CC1=NC2NN(c3ccccc3)C(=O)C2=C1CC(=O)c1cccc2ccccc12)c1cccc2ccccc12 (stereo not given)
T/C [6]: 107 % of control | T/C [7]: 107 % of control | T/C (dose: 200.0 mg/kg/injection, schedule: Q01DX005 (ip), vehicle: saline with Tween-80): 107 % of control

CC1OC(OC2C(CO)OC(O[C@H]3CC[C@@]4(C)C(=CC[C@H]5[C@@H]6C[C@@H]7O[C@]8(CC[C@@H](C)CN8)[C@@H](C)[C@@H]7[C@@]6(C)CC[C@@H]54)C3)C(O)C2O)C(O)C(O)C1O (stereo not given in full)
T/C (dose: 12.5 mg/kg/injection, schedule: Q01DX005 (ip), vehicle: acid diluted with saline): 101 % of control | T/C (dose: 25.0 mg/kg/injection, schedule: Q01DX005 (ip), vehicle: acid diluted with saline): 105 % of control | T/C (dose: 50.0 mg/kg/injection, schedule: Q01DX005 (ip), vehicle: acid diluted with saline): 105 % of control and 87 % of control | T/C (dose: 100.0 mg/kg/injection, schedule: Q01DX005 (ip), vehicle: acid diluted with saline): 105 % of control

CCCN(CCC)C(=O)[S-].CCCN(CCC)C(=O)[S-].[Ni+2]
T/C (dose: 12.5 mg/kg/injection, schedule: Q01DX009 (ip), vehicle: saline with Tween-80): 90 % of control | T/C [15]: 109 % of control

CCn1c2ccc(C(=O)CCCN(C)C)cc2c2cc(C(=O)CCCN(C)C)ccc21
T/C [11]: 118 % of control and 122 % of control | T/C [12]: 108 % of control and 116 % of control

COC(=O)C(C)c1cc2ccccc2[nH]1 (stereo not given)
T/C [15]: 100 % of control | T/C (dose: 50.0 mg/kg/injection, schedule: Q01DX009 (ip), vehicle: saline with Tween-80): 99 % of control | T/C (dose: 100.0 mg/kg/injection, schedule: Q01DX009 (ip), vehicle: saline with Tween-80): 113 % of control

COC(=O)C(CS[C@@H]1CCCC[C@@H]1O)NC(C)=O (stereo not given in full)
T/C (dose: 50.0 mg/kg/injection, schedule: Q01DX005 (ip), vehicle: suspension in saline): 100 % of control | T/C (dose: 100.0 mg/kg/injection, schedule: Q01DX005 (ip), vehicle: suspension in saline): 99 % of control | T/C (dose: 200.0 mg/kg/injection, schedule: Q01DX005 (ip), vehicle: suspension in saline): 95 % of control

O=c1cc(-c2ccccc2)[nH]c(=O)[nH]1
T/C (dose: 25.0 mg/kg/injection, schedule: Q04DX003 (ip), vehicle: saline with Tween-80): 99 % of control | T/C (dose: 50.0 mg/kg/injection, schedule: Q04DX003 (ip), vehicle: saline with Tween-80): 101 % of control | T/C (dose: 100.0 mg/kg/injection, schedule: Q04DX003 (ip), vehicle: saline with Tween-80): 107 % of control

CCCCN(CCCC)C(Cl)=NCCC
T/C [13]: 94 % of control | T/C [14]: 93 % of control

O=S(=O)(O)C(O)C(F)(F)C(F)(F)C(F)(F)F (stereo not given)
T/C (dose: 60.0 mg/kg/injection, schedule: Q01DX005 (ip), vehicle: saline): 98 % of control | T/C (dose: 120.0 mg/kg/injection, schedule: Q01DX005 (ip), vehicle: saline): 94 % of control | T/C (dose: 240.0 mg/kg/injection, schedule: Q01DX005 (ip), vehicle: saline): 99 % of control

N[C@H](CCOc1ccc(/C(=N/O)C(=O)N[C@H]2CN([C@@H](C(=O)O)c3ccc(O)cc3)C2=O)cc1)C(=O)O
T/C (dose: 50.0 mg/kg/injection, schedule: Q01DX005 (ip), vehicle: water): 101 % of control | T/C (dose: 100.0 mg/kg/injection, schedule: Q01DX005 (ip), vehicle: water): 97 % of control | T/C (dose: 200.0 mg/kg/injection, schedule: Q01DX005 (ip), vehicle: water): 105 % of control
